Our source for the TGI values is PubChem BioAssay (NCI).

A word on the TGI: it is the concentration giving total growth inhibition. Lower therefore signals greater sensitivity of the cells.

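Test compounds were applied to cells in 96-well plates for 48 hours at 5 doses. TGI: concentration producing complete growth inhibition.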

Holding throughout (assay): DTP human tumour cell line panel, 48 h
For test [1], the system named is BT-549 breast.
Test [2] deals with HT29 colon.
Test [3] deals with SN12C renal.
Test [4] relates to ACHN renal.
In test [5] the test system is NCI-H23 lung.
Test [6] relates to NCI-H522 lung.
The subject of test [7] is LOX IMVI melanoma.
For test [8], the system named is A549 NSCLC.
Test [9] concerns T-47D breast.
For test [10], the system named is EKVX NSCLC.
The subject of test [11] is HL-60(TB) leukemia.
In test [12] the test system is SK-MEL-28 melanoma.
In test [13] the test system is U251 CNS.
For test [14], the system named is HCT-15 colon.
In test [15] the test system is COLO 205 colon.
Test [16] deals with MCF7 breast.
Test [17] deals with SNB-19 CNS.
For test [18], the system named is TK-10 renal.
The subject of test [19] is OVCAR-3 ovarian.
Test [20] concerns A498 renal.

Regarding `c1ccc2c(c1)ncn2C1CCCCO1` (stereo unspecified), the TGI in test [1], in [2], in test [3], in [4], in test [5] and in [6] was greater than 100 µM in each case. Moreover, the TGI in test [7], in test [8], in test [9], in [10], in test [11] and in [12] was greater than 100 µM throughout. For the same compound, the TGI in test [13], in [14], in test [15], in test [16], in test [17] and in test [18] was greater than 100 µM throughout. Besides, the TGI in test [19] is greater than 100 µM.
With `COC1(OC)CC(CO)(CNc2cc(Cl)nc(N)n2)C1`, the concentration for total growth inhibition (TGI) in test [1], in test [2], in test [3], in test [4], in test [5] and in test [6] was greater than 100 µM each time. The TGI in test [7], in test [8], in test [9], in [10], in [11] and in [12] was greater than 100 µM each time. The total growth inhibition concentration (TGI) in test [13], in test [14], in [15], in test [16], in test [17] and in [18] was greater than 100 µM each time. Moreover, in [19], the concentration for total growth inhibition (TGI) was greater than 100 µM.
On to `C/C(=C/C(=O)Nn1c(Cc2ccccc2)n[nH]c1=O)C(=O)O`, for which the total growth inhibition concentration (TGI) in [1], in test [2], in test [3], in test [4], in test [5] and in [6] was greater than 100 µM throughout. The TGI in test [7], in [8], in test [9], in test [10], in test [11] and in test [12] was greater than 100 µM each time. Further, the TGI in test [13], in [14], in test [15], in test [16], in test [17] and in test [18] was greater than 100 µM each time. Further, the TGI in test [19] is greater than 100 µM.
Consider `Nc1nc(N)c2ncn(Cc3ccccc3CCl)c2n1`, for which the TGI in test [1], in test [2], in test [3], in [4], in test [5] and in [20] was greater than 100 µM each time. Further, the concentration for total growth inhibition (TGI) in [6], in test [8], in test [9], in [10], in [11] and in [12] was greater than 100 µM throughout. Besides, the TGI in [13], in test [14], in test [15], in test [16], in [17] and in [18] was greater than 100 µM throughout. In test [19], this compound returned a total growth inhibition concentration (TGI) greater than 100 µM.
`O=C1CCCC/C1=C\c1ccc(Br)cc1`: the TGI in test [1] was 28.7 µM; in test [3], 41.5 µM; in test [4] it was 9.18 µM; in test [5] it was 33.2 µM; in test [6] it was 31.1 µM; in test [7], greater than 100 µM. Moreover, the total growth inhibition concentration (TGI) turned out to be 67.7 µM in test [8]; 51 µM in test [9]; 62.8 µM in test [10]; 7.23 µM in test [11]; 31.6 µM in test [12]; 9.79 µM in test [13]. The concentration for total growth inhibition (TGI) in test [15] amounted to 32.8 µM; in [16] it was 7.4 µM; in test [17], 13.2 µM; in [18] it was 30.9 µM; in test [19], 44.3 µM.
On to `CC(=O)OCC1OC(SC2OC(COC(C)=O)C(OC(C)=O)C(OC(C)=O)C2OC(C)=O)C(OC(C)=O)C(OC(C)=O)C1OC(C)=O` (stereo unspecified), for which the concentration for total growth inhibition (TGI) in test [1], in [2], in test [3], in test [4], in test [5] and in test [20] was greater than 100 µM each time. The TGI in test [7], in test [8], in test [9], in test [10], in test [11] and in test [12] was greater than 100 µM in each case. In addition, the TGI in test [13], in [14], in test [15], in [16], in [17] and in [18] was greater than 100 µM in each case. In test [19], the concentration for total growth inhibition (TGI) is greater than 100 µM.
For `Cn1c(-c2ccccc2)cc2c3ccsc3c3ccsc3c21`, the concentration for total growth inhibition (TGI) in [1], in [2], in test [3], in test [4], in [5] and in [20] was greater than 100 µM in each case. The TGI in test [6], in test [7], in [8], in [9], in test [11] and in test [12] was greater than 100 µM throughout. The TGI in test [13], in [14], in test [15], in test [16], in [17] and in [18] was greater than 100 µM throughout. In test [19], this compound displayed a TGI greater than 100 µM.
